Test system: KRAS PDC multicell spheroid viability
Experiment: Anticancer human tumor 825966-067-R-J1-PDC patient-derived colon carcinoma cell line growth inhibition [KRAS2]
Details: for IC50: curve of first compound; for viability, T/C: stronger effect = lower value
Excerpt: Multicellular complex tumor spheroid response to RAS pathway inhibitors in combination with a targeted agents in patient-derived cell lines with oncogenic KRAS variants from multiple cancer types
A high-throughput screen of multi-cell type tumor spheroids was designed to identify active combinations of targeted small molecules and KRAS pathway inhibitors. Complex spheroids include a stromal component modeled by human endothelial cells (HUVEC) and fibroblasts modeled by human mesenchymal stem cells (MSCs). The concentration ranges selected for each drug and investigational agent were based upon clinically achievable concentrations if the clinical Cmax of the agent was known.
Compounds. The drugs and investigational agents: BI-3406 (NSC825286), BAY-293 (NSC824723), batoprotafib (TNO155; NSC825523), sotorasib (AMG 510; NSC818433), MRTX1257 (NSC819558), elimusertib (BAY 1895344; NSC800525), molibresib (GSK525762; NSC774829), temuterkib (LY3214996; NSC803410), venetoclax (NSC766270), alisertib (NSC759677), olaparib (NSC753686), talazoparib (NSC767125), erdafitinib (NSC781556), ipatasertib (NSC767898), cabozantinib (NSC761068), nintedanib (NSC756659), abemaciclib (NSC768073), docetaxel (NSC628503), trametinib (NSC758246), and sapanisertib (NSC764658) were obtained from the National Cancer Institute (NCI) Developmental Therapeutics Program Chemical Repository. The FDA-approved anticancer drug set is available from the Developmental Therapeutics Program. […] The stock solutions were prepared in dimethyl sulfoxide (DMSO, Sigma-Aldrich, St. Louis, MO, cat. D2650) at 800-fold the tested concentration and stored at -70 degrees C prior to their use. All drugs and investigational agents were tested over a range starting from a high concentration at or near the clinical Cmax and decreasing in half-log increments. If the clinical Cmax for an agent had not been determined, the highest concentration tested was 10 microM.
Cell Culture. All cells were maintained in an incubator at 37 degrees C and 5% CO2 with 95% humidity. The PDC lines were cultured according to standard operating procedures established by the NCI PDMR (https://pdmr.cancer.gov/sops/default.htm). Briefly, all PDCs were thawed and cultured in Matrigel-coated flasks prepared with a working solution of 1X Ham's F-12 nutrient mix, without supplementation (Invitrogen, Waltham, MA, cat. 11765054), 100 U/mL penicillin-streptomycin (Invitrogen, cat. 15140122), and 2.5% Matrigel (Corning Inc., Corning, NY, cat. 354248) for the first three passages. All PDCs were cultured in complete DMEM/F-12 media containing advanced DMEM/F-12 (Invitrogen, cat. 12634028), 4.9% defined fetal bovine serum, heat inactivated (HyClone Laboratories Inc., Logan, UT, cat. SH30070.03HI), 389 ng/mL hydrocortisone (Sigma-Aldrich, cat. H4001), 9.7 ng/mL human EGF recombinant protein (Invitrogen, cat. PHG0313), 23.4 microg/mL adenine (Sigma-Aldrich, cat. A2786), 97.3 U/mL penicillin-streptomycin (Invitrogen, cat. 15140122), 1.9 mM L-glutamine (Invitrogen, cat. 25030081), and 9.7 microM Y-27632 dihydrochloride (Tocris Bioscience, Bristol, United Kingdom, cat. 1254). The PDCs were cultured in complete DMEM/F12 media without 9.7 microM Y-27632 dihydrochloride for at least two passages prior to the screen. The established cell line HOP-62 was cultured in RPMI 1640 medium, HEPES (Invitrogen, cat. 22400105) with 10% defined fetal bovine serum (HyClone Laboratories Inc., cat. SH30070.03) and 2 mM L-glutamine (Invitrogen, cat. 25030081). The pooled donor HUVEC were cultured in endothelial cell growth medium 2 (PromoCell, Heidelberg, Germany, cat. C-22011) and the hMSC were cultured in mesenchymal stem cell growth medium 2 (PromoCell, cat. C-28009). For all experiments, HUVEC and hMSC were used at passages </=5, while the malignant cell lines were used at passages </=15. […]

[1] = second compound 0.1 µM, first compound 0.0316 µM
[2] = second compound 0.1 µM, first compound 0.1 µM
[3] = second compound 0.1 µM, first compound 0.316 µM
[4] = second compound 0.1 µM, first compound 1 µM
[5] = second compound 0.1 µM, first compound 3.16 µM
[6] = second compound 0.1 µM, first compound 10 µM
[7] = second compound 0.316 µM, first compound 0.0316 µM
[8] = second compound 0.316 µM, first compound 0.1 µM
[9] = second compound 0.316 µM, first compound 0.316 µM
[10] = second compound 0.316 µM, first compound 1 µM
[11] = second compound 0.316 µM, first compound 3.16 µM
[12] = second compound 0.316 µM, first compound 10 µM
[13] = second compound 1 µM, first compound 0.0316 µM
[14] = second compound 1 µM, first compound 0.1 µM
[15] = second compound 1 µM, first compound 0.316 µM
[16] = second compound 1 µM, first compound 1 µM
[17] = second compound 1 µM, first compound 3.16 µM
[18] = second compound 1 µM, first compound 10 µM
[19] = second compound 3.16 µM, first compound 0.0316 µM
[20] = second compound 3.16 µM, first compound 0.1 µM
[21] = second compound 3.16 µM, first compound 0.316 µM
[22] = second compound 3.16 µM, first compound 1 µM
[23] = second compound 3.16 µM, first compound 3.16 µM
[24] = second compound 3.16 µM, first compound 10 µM
[25] = second compound 10 µM, first compound 0.0316 µM
[26] = second compound 10 µM, first compound 0.1 µM
[27] = second compound 10 µM, first compound 0.316 µM
[28] = second compound 10 µM, first compound 1 µM
[29] = second compound 10 µM, first compound 3.16 µM
[30] = second compound 10 µM, first compound 10 µM
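Further: spheroids exposed to compounds for 7 days.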
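Wherever viability, T/C is given: 100% = DMSO vehicle control viability.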

SMILES | IC50 (second compound 0.1 µM) | IC50 (second compound 0.316 µM) | IC50 (second compound 1 µM) | IC50 (second compound 3.16 µM) | IC50 (second compound 10 µM) | viability, T/C [1] | viability, T/C [2] | viability, T/C [3] | viability, T/C [4] | viability, T/C [5] | viability, T/C [6] | viability, T/C [7] | viability, T/C [8] | viability, T/C [9] | viability, T/C [10] | viability, T/C [11] | viability, T/C [12] | viability, T/C [13] | viability, T/C [14] | viability, T/C [15] | other results
COC(=O)c1ccc2c(C(=Nc3ccc(N(C)C(=O)CN4CCN(C)CC4)cc3)c3ccccc3)c(O)[nH]c2c1 + C=CC(=O)N1CCN(c2nc(=O)n(-c3c(C)ccnc3C(C)C)c3nc(-c4c(O)cccc4F)c(F)cc23)C(C)C1 | 633 nM | 738 nM | 513 nM | 472 nM | 444 nM | 83.3% | 88.2% | 72.2% | 35.4% | 0.37% | 0.76% | 76.2% | 82.6% | 77.7% | 40% | 0.17% | 0.12% | 77.3% | 75.7% | 85.6% | viability, T/C [16]: 9.2%; viability, T/C [17]: 0.13%; viability, T/C [18]: 0.13%; viability, T/C [19]: 83%; viability, T/C [20]: 76.4%; viability, T/C [21]: 71.6%; viability, T/C [22]: 9.78%; viability, T/C [23]: 1.23%; viability, T/C [24]: 0.13%; viability, T/C [25]: 71.2%; viability, T/C [26]: 67%; viability, T/C [27]: 68.7%; viability, T/C [28]: 5.2%; viability, T/C [29]: 0.99%; viability, T/C [30]: 0.17%
O=C(c1cc(Cc2n[nH]c(=O)c3ccccc23)ccc1F)N1CCN(C(=O)C2CC2)CC1 + C=CC(=O)N1CCN(c2nc(=O)n(-c3c(C)ccnc3C(C)C)c3nc(-c4c(O)cccc4F)c(F)cc23)C(C)C1 | > 10000 nM | > 10000 nM | > 10000 nM | > 10000 nM | > 10000 nM | 97.5% | 89.9% | 107% | 71.9% | 71.1% | 77.9% | 90.2% | 96.8% | 77.2% | 81.9% | 65.7% | 80.9% | 100% | 84.3% | 77.8% | viability, T/C [16]: 62.8%; viability, T/C [17]: 70.8%; viability, T/C [18]: 88.1%; viability, T/C [19]: 68.3%; viability, T/C [20]: 90.3%; viability, T/C [21]: 78.4%; viability, T/C [22]: 75.8%; viability, T/C [23]: 73.3%; viability, T/C [24]: 70.4%; viability, T/C [25]: 96.4%; viability, T/C [26]: 82.3%; viability, T/C [27]: 90.8%; viability, T/C [28]: 72%; viability, T/C [29]: 66.5%; viability, T/C [30]: 91.7%
